Results taken from patent US8642785B2, “Photolabile dinitroindolinyl based compounds” (Philadelphia Health & Education Corporation, priority 2007, dated 2014).
Where “and” joins values, the source holds several entries; their conditions need not be identical. Identical values can stand only once.

Assays:
[1] = Solubility in physiological buffer; assay type: physicochemical; details: for solubility (in words): physiological buffer / pH
Protocol: (§1) In order to evoke currents with CNI-GABA 20 mW for 2 ms and 10 mM must be used, whereas with CDNI-GABA only 4 mW and 0.5 mM are required. […] The effectiveness of CDNI-GABA is believed to be an important asset because high concentrations of the cages block GABA receptor before uncaging.
Advantageously, inventor had discovered that addition of the negative charge with CDNI-Glu solves both of these problems

[2] = Basic photochemical properties: one-photon photolysis / quantum yield determination by comparison with MNI-Glu; assay type: physicochemical; details: for φ, quantum yield: Table 1, measured against MNI-Glu, filtered 280-400 nm Hg lamp; for quantum yield of photolysis: pH 7.4, compared with MNI-Glu; for ε · φ: product of extinction coefficient and quantum yield, in M-1 cm-1 (unit assumed); for photolyzed faster than MNI-Glu: pH 7.4, continuous-wave mercury arc lamp
Protocol: The data imply that the quantum yield for release of L-glutamate from CDNI-Glu was about 0.5.
The extent of photolysis was measured either by HPLC (with inosine as the internal standard), or using the inherent changes in the UV-visible absorption spectra of the chromophores (FIGS. 4A-4D).
Quantum yield determination. The quantum yield for uncaging the new caged amino acids (CDNI-Glu, CNL-Glu, CNI-GABA and CNI-GABA) were measured by comparing the time of photolysis with the filtered (280-400 nm) output of a 500 W medium pressure Hg lamp of an equimolar solution (0.25 mM) of MNI-Glu and new cage. Inosine was used an inert internal standard. The path-length of the cuvette was 0.1 mm. The extent of reaction was monitored by HPLC as described previously (Huang, et al., 2005). […] Both methods gave very similar results.

[3] = Hydrolysis of solutions stored at 4° C.; assay type: physicochemical
Protocol: (§2) What is the reason for continued focus on cage development? […] The first good caged glutamate was CNB-Glu (Weiboldt, et al., 1994). UV-laser excitation released glutamate quickly and with usable efficiency from this caged compound. […] For this reason, Bhc- and DMCNB-Glu were synthesized (Furuta et al., 1999; Ellis-Davies, 1999). […] However, when used for 2-photon photolysis MNI-Glu is applied at high concentrations (5-12 mM) that must be irradiated with powers at the very limit of tolerance for brain tissue (Matsuzaki, et al., 2004). For this reason, an even better caged glutamate is desired. An NI-Glu derivative was made containing a cross-linked benzophenone chromophore (“antenna-NI-Glu”, Papageorgiou, et al., 2004). When UV light (300-308 nm) was used to excite the benzophenone antenna, triplet energy transfer to the MNI cage released glutamate with high efficiency, which dropped considerably (ca. 2.5-fold) at 354 nm. […] In contrast, the inventor was able to uncage CDNI-Glu at 354 nm with very high efficiency (similar to the antenna-NI-Glu at 300 nm).

[4] = Two-photon (action) cross section; assay type: physicochemical; details: for δ (relative), two-photon action cross section: MNI-Glu = 1
Protocol: as §2
Given the power-squared law for 2-photon excitation (Denk, et al., 1990), this implies that the new chromophore is about 140-250 higher action cross-section for 2-photon uncaging, defined by Denk et al. (1990).
as §1
AMPA receptor currents evoked by 2-photon uncaging of MNI-Glu and CDNI-Glu on CA1 pyramidal neurons in acutely isolated brain slices were compared. An image of neuron from slice of hippocampus Post-natal day 15 (P15) rat brain was obtained. MNI-Glu and CNDI-Glu were applied at 10 mM and 2.5 mM to the same neuron, and glutamate was uncaged in the image area at 2 power levels according to methods previously described in Matsuzaki, et al., 2001 (compare FIGS. 5A & 5B, MNI-Glu currents shown on right hand side, CDNI-Glu currents shown on left hand side). The currents evoked by uncaging from CNDI-Glu were approximately 2-3× larger than MNI-Glu, implying 5-10× better reactivity for 2-photon uncaging.

AMPA receptors = experiment: 2-photon uncaging of caged glutamate, AMPA receptor currents on CA1 pyramidal neurons in acutely isolated brain slices; assay type: cell-based, rat
GABA receptors [5] = experiment: 2-photon uncaging of caged GABA on hippocampal CA1 neurons in acutely isolated brain slices; assay type: cell-based, rat; details: for concentration of caged compound required to evoke currents / laser power required to evoke currents: 2-photon uncaging; for laser power required to evoke currents: 720 nm; for block of GABA receptor by the cage before uncaging: CNI-GABA at high concentrations, CDNI-GABA in smaller amount
[6] = background; cited from earlier work
[7] = 1 GM=10^−50 cm^4s/photon; background; cited from earlier work
[8] = laser flash photolysis (Gee, et al., 1994); cited from earlier work
GABA receptors [9] = details: outside-out membrane patches (Jayaraman, et al., 1999); cited from earlier work

Structure (SMILES): N[C@@H](CCC(=O)N1CCc2c(OCC(=O)O)c([N+](=O)[O-])cc([N+](=O)[O-])c21)C(=O)O [CDNI-Glu]
- solubility (in words) [1]: smooth solubilization of useful concentrations
- ε, molar extinction coefficient [2]: 8,600 M^−1 cm^−1
- release of L-glutamate on photolysis ([2]; NMR analysis of the reaction mixture): essentially quantitatively
- φ, quantum yield [2]: 0.5
- quantum yield for release of L-glutamate ([2]; pH 7.4): about 0.5
- quantum yield of photolysis [2]: about 0.5
- ε · φ [2]: 4,300
- hydrolysis after 13 d [3]: 7%
- action cross-section for 2-photon uncaging, higher than MNI-Glu ([4]; implied by power-squared law for 2-photon excitation): 140-250
- δ (relative), two-photon action cross section [4]: 5-10
- currents evoked by 2-photon uncaging, times larger than MNI-Glu (AMPA receptors; 2.5 mM vs MNI-Glu 10 mM on the same neuron, P15 rat hippocampus slice, listed as CNDI-Glu): 2-3 times and 3-4 times
- biological inertness of the cage toward AMPA receptors (AMPA receptors; before uncaging): biologically inert
- rise- and decay-times of the evoked currents compared with MNI-Glu (AMPA receptors; same CA1 pyramidal neuron): similar
- AMPA-receptor currents relative to MNI-Glu (AMPA receptors; sequential alternating application and uncaging on the same CA1 pyramidal neuron, same laser energy): five-times larger

Structure (SMILES): COc1c([N+](=O)[O-])cc([N+](=O)[O-])c2c1CCN2C(=O)CCC(N)C(=O)O (centres unmarked) [MDNI-Glu, 4-methoxy-5,7-dinitroinlinylglutamate]
- concentration of solutions that could be made [1]: ≥ 1000 µM
- behaviour of buffer solution when frozen ([1]; buffer, frozen, then room temperature): precipitate in buffer when frozen
- current signals from hippocampal neurons on 2-photon uncaging (AMPA receptors; 1 mM solutions): did not evoke any current signals

Structure (SMILES): NCCCC(=O)N1CCc2c(OCC(=O)O)ccc([N+](=O)[O-])c21 [CNI-GABA]
- ε, molar extinction coefficient [2]: 4,300 M^−1 cm^−1
- φ, quantum yield [2]: 0.1
- quantum yield of photolysis [2]: 0.1
- photolyzed faster than MNI-Glu [2]: about 10%
- ε · φ [2]: 430
- δ (relative), two-photon action cross section [4]: 1
- concentration of caged compound required to evoke currents (GABA receptors [5]): 10 mM
- laser power required to evoke currents (GABA receptors [5]): 20 mW
- block of GABA receptor by the cage before uncaging (GABA receptors [5]): partially blocks

Structure (SMILES): NCCCC(=O)N1CCc2c(OCC(=O)O)c([N+](=O)[O-])cc([N+](=O)[O-])c21 [CDNI-GABA, (1-[4-Aminobutanoyl]-5,7-dinitroindolin-4-yloxy)acetic acid]
- ε, molar extinction coefficient [2]: 8,600 M^−1 cm^−1
- φ, quantum yield [2]: 0.6
- quantum yield of photolysis [2]: 0.6
- photolyzed faster than MNI-Glu [2]: 700%
- ε · φ [2]: 5160
- δ (relative), two-photon action cross section [4]: 5-10
- concentration of caged compound required to evoke currents (GABA receptors [5]): 0.5 mM and 0.55 mM
- laser power required to evoke currents (GABA receptors [5]): 4 mW
- block of GABA receptor by the cage before uncaging (GABA receptors [5]): not blocking before uncaging
- effectiveness relative to CNI-GABA (GABA receptors [5]; GABA receptors on CA1 neurons): 5-10 times

Structure (SMILES): COc1ccc([N+](=O)[O-])c2c1CCN2C(=O)CCCN [MNI-GABA]
- solubility (in words) [1]: not soluble enough for uncaging

Structure (SMILES): COc1ccc([N+](=O)[O-])c2c1CCN2C(=O)CC[C@H](N)C(=O)O [MNI-Glu, Methoxynitroindoline-caged L-glutamate, reference compound]
- ε, molar extinction coefficient [2]: 4,300 M^−1 cm^−1
- φ, quantum yield [2]: 0.085
- ε · φ [2]: 366
- hydrolysis after 2 d [3]: no detectable hydrolysis
- hydrolysis after 13 d [3]: 1%
- δ (relative), two-photon action cross section [4]: 1

Structure (SMILES): N[C@@H](CCC(=O)OC(C(=O)O)c1ccccc1[N+](=O)[O-])C(=O)O (some centres unmarked) [CNB-Glu]
- hydrolytic stability (in words) [6]: some what hydrolytically unstable
- 2-photon cross section [7]: less than 0.001 GM

Structure (SMILES): NC(CCC(=O)N1CCc2c(OCC(=O)O)ccc([N+](=O)[O-])c21)C(=O)O (centres unmarked) [CNI-Glu, 4-carboxymethoxy-7-nitroinlinylglutamate]
- ε, molar extinction coefficient [2]: 4,300 M^−1 cm^−1
- fraction photolyzed during the time required for complete photolysis of CDNI-Glu ([2]; NMR analysis of a photolysis solution of 7, CNI-Glu and CDNI-Glu): about 10%
- φ, quantum yield [2]: 0.1
- quantum yield of photolysis [2]: about 0.1
- ε · φ [2]: 430
- δ (relative), two-photon action cross section [4]: 1

Structure (SMILES): NCCCC(=O)OC(C(=O)O)c1ccccc1[N+](=O)[O-] (centres unmarked) [CNB-GABA]
- half-time of neurotransmitter release [8]: about 30 microseconds
- 10-90% rise time of activated currents (GABA receptors [9]): about 8 ms
